Data taken from patent publication US10758522B2, “Small molecule analogs of the nemo binding peptide” (THE SCRIPPS RESEARCH INSTITUTE, priority 2015, dated 2020).
pIC50: −log10 of the molar value.

How the values were obtained:
[1] = system: IL-6; experiment: IL-6 ELISA in LPS-stimulated Raw 264.7 cells; assay type: cell-based, mouse; conditions: Raw 264.7, 1 ug/ml LPS, supernatant at 24 hr
Procedure: To confirm the qRT-PCR result, LPS-mediated IL-6 production was analyzed in Raw 264.7 cells by ELISA. […] Moreover, SR11481 appears to work more efficiently at a lower concentration around 25 μM. Taken together, four lead compounds were identified through seven rounds of optimization and modification.
Enzyme-Linked Immunosorbent Assay (ELISA). Raw264.7 cells were grown in a 96-well plate and pretreated with vehicle, IKKi VII (2 uM) and small molecules (at indicated concentration) for 1 hr, followed by the stimulation with 1 ug/ml of LPS. Supernatant was collected 24 hr later for ELISA analysis. IL-6 concentration was measured using a mouse IL-6 ELISA kit (BD) according to the manufacturer's instructions.

[2] = system: NF-κB; experiment: Dual-luciferase (NF-κB firefly / SV40 Renilla) reporter assay in HEK293 cells; assay type: cell-based; conditions: Homo sapiens; inhibition of TNF-α-induced NF-κB activation, HEK293, luciferase assays at 0, 25, 50, 100 and 150 μM, GraphPad
Procedure: Thus seven rounds of structural modification and optimization were performed to improve bioactivity and stability and more than one hundred small molecules were tested (data not shown). […] To minimize the influence of drug toxicity on the screening assay, a renilla luciferase reporter driven by the SV40 promoter was cotransfected with the NF-κB luciferase reporter into HEK293 cells as a co-reporter for normalization.
Inhibitory effects of NBD mimetics on NF-κB activation were measured by luciferase assays at multiple concentrations: 0, 25, 50, 100 and 150 μM. IC50 of NBD mimetics was determined based on the dose-dependent curve by using GraphPad.
HEK293 cells grown in 10 cm plates were co-transfected with co-reporter of Renilla plasmid driven by SV40 and luciferase plasmid driven by NF-κB at the ratio of 1:3 with Lipofectamine 2000 (Invitrogen). Transiently transfected HEK293 were grown and treated as described above and subjected to a dual-luciferase reporter assay according to the manufacturer's instruction. Firefly luciferase activity was normalized to Renilla luciferase to get the relative luciferase activity.

[3] = system: NF-κB target genes; experiment: qRT-PCR of NF-κB target genes in LPS-stimulated Raw 264.7 cells; assay type: cell-based, mouse; conditions: Raw 264.7, 1 ug/ml LPS 2 hr; mimetics 50 μM, IKKi VII 2 μM, 8K-NBD 400 μM
Procedure: Effect of the NBD mimetics on expression of NF-kB regulated genes in the Raw mouse macrophage cell line. Treatment of the Raw cells with the indicated drugs prior to addition of LPS reduced NF-kB-mediated gene expression as measured by RT-PCR.
To determine whether the inhibitory effect of the mimetics is TNF-α-dependent, LPS-mediated NF-κB activation via TLR4 was examined to determine a broader inhibitory effect of the novel NBD mimetics. NF-κB was stimulated in Raw 264.7 by 1 ug/ml of LPS for 2 hr and genes transcriptionally regulated by NF-κB were determined by qRT-PCR analysis. Both an IKK active site inhibitor IKKi VII (2 μM) and the 8K-NBD peptide (400 μM) were included as positive controls and the expression of COX2, IL-6, IL-1β, TNF-α, IκBα and iNOS were assessed.
Raw 264.7 cells were treated with a 50 μM solution of the SR compound for 30 minutes, and then the mRNA was harvested 2 hours after addition of 1 μg/mL LPS.
Snap frozen tissues were preserved in RNAlater RNA stabilization solution (ThermoFisher) before processed. Total RNA was extracted from cells or tissues using TRIZOL reagent (Life Technologies) and 1500 ng of messenger RNA (mRNA) was subjected to synthesize complementary DNA (cDNA) using SuperScript VILO cDNA synthesis kit. qRT-PCR was performed in a StepOnePlus Real-Time PCR system using Platinum SYBR Green qPCR SuperMix-UDG (ThermoFisher). Target gene expression was calculated using the comparative CT method (ΔΔCT) and normalized to an internal control gene Actb (β-actin). Primers used are as follows: Ptgs2 (COX-2) forward: […]; Ptgs2 (COX-2) reverse: […]; Nfkbia (IκBα) forward: […]; Nfkbia (IκBα) reverse: […]; Il1b (IL-1β) forward: […]; Il1b (IL-1β) reverse: […]; Nos2 (iNOS) forward: […]; Nos2 (iNOS) reverse: […]; Tnf (TNF) forward: […]; Tnf (TNF) reverse: […]; Il6 (IL-6) forward: […]; Il6 (IL-6) reverse: […]. Actb (β-actin) forward: […]; Actb (β-actin) reverse: […];

[4] = system: NF-κB; experiment: EMSA of NF-κB DNA binding in skeletal muscle of mdx mice after acute treatment; assay type: in vivo, mouse; conditions: single ip injection at 10 mg/kg, 1 and 2 hours post-treatment
Procedure: We also tested the compounds for their ability to inhibit NF-κB activity acutely in a murine model of disease. For these experiments, a mouse model of Duchenne muscular dystrophy, which has elevated NF-κB activity in muscle, was treated with Zinc-13 (NBDA-1) and Zinc-5 (NBDA-2) and the level of NF-κB activity determined by gel shift analysis at 1 and 2 hours post-treatment.
To confirm that the NBD mimetics reduce IKK activity, the extent of phosphorylation of the IKK target, IκBα, in response to 10 ng/ml of TNF-α was determined by Western blot at 0, 5 and 10 min after TNF-α stimulation. […] To determine if the mimetics also reduce NF-κB DNA binding activity, electrophoretic mobility shift assay (EMSA) was conducted both in vivo and in vitro.
Cytoplasmic and nuclear fractions were extracted using the NE-PER nuclear and cytoplasmic extraction reagents (ThermoFisher) according to the manufacturer's instructions. The gel shift assay was performed by following the previously described method (41). In brief, 5 μg of nuclear extract was incubated with gel shift binding buffer and an α-^32P-deoxycytodine triphosphate-radiolabeled NF-κB probe for 20 min at room temperature (MP Biomedicals). The oligonucleotide sequences are as follows: NF-κB template, 5′-[…]-3′; NF-κB annealing, 5′-[…]-3′. The reaction product was separated on a 6% non-denaturing polyacrylamide gel.

[5] = system: embryonic fibroblasts from Ercc1−/− mice; experiment: Senescence rescue assay in ERCC1-deficient murine embryonic fibroblasts (SA-ß-gal); assay type: cell-based, mouse; conditions: oxidative stress conditions (20% O2)
Source text: In an attempt to identify new drugs able to improve healthspan, we have developed an assay for screening for drugs able to rescue primary “aged” fibroblasts from senescence. This assay uses murine embryonic fibroblasts (MEFs) from mice with accelerated aging due to a deficiency in an important DNA repair pathway, ERCC1-XPF. These MEFs undergo rapid senescence in culture, especially when grown under the high oxygen conditions that confers oxidative stress (FIGS. 18 and 19).

[6] = system: K14-Cre; Ercc1−/flox mice; experiment: Topical treatment of skin aging in K14-Cre; Ercc1−/flox mice; assay type: in vivo, mouse; conditions: daily
Procedure: To test the ability of NBDA-1 to function in vivo, the drug was tested in several models of aging. In FIG. 12, the ability of topical treatment of NBDA-1 to reduce signs of skin aging is shown. Areas on the back of normal mice or mice with enhanced skin aging (K14-Cre; Ercc1^−/flox) were shaved and then treated daily with drugs or control creams.

| pIC50 [2] | Compound | LPS-mediated mIL-6 production (ELISA) [1] | transcription of NF-κB target genes (COX2, IL-6, IL-1β, TNF-α, IκBα, iNOS) [3] | NF-κB DNA binding activity in quadriceps of mdx mice ([4]; listed as Zinc-13, 10 mg/kg) | NF-κB DNA binding activity in quadriceps of mdx mice ([4]; listed as compound 12909780, 10 mg/kg) | senescence (SA-ß-gal staining) of ERCC1-deficient MEFs [5] | epidermal thickness / skin architecture [6] |
| --- | --- | --- | --- | --- | --- | --- | --- |
| 4.95 | O=C(CNCCc1cc(F)cc(F)c1)Nc1ccc(Cl)cn1 [SR12460, N-(5-chloropyridin-2-yl)-2-((3,5-difluorophenethyl)amino)acetamide] | decreasing by half at 25 μM | significantly downregulate the transcription of all NF-κB target genes tested |  |  |  |  |
|  | Nc1ncccc1C(=O)OCC(=O)Nc1ccc(Cl)cc1F [NBDA-1, 2-((4-chloro-2-fluorophenyl)amino)-2-oxoethyl 2-aminonicotinate] |  |  | reduced NF-κB DNA binding activity in the skeletal muscle (quadricep) | inhibited NF-κB DNA binding activity in quadriceps | reduced senescence | improved epidermal thickness to a greater extent than the peptide on which it was modeled |
|  | O=C(CNc1ccc(Cl)cn1)NCCc1cccc(Br)c1 [SR12343, N-(3-bromophenethyl)-2-((5-chloropyridin-2-yl)amino)acetamide] | suppressed mIL-6 production in a dose-dependent manner | significant inhibition on COX2, IL-6 and iNOS expression |  |  |  |  |
